The values below come from US20080152736A1, “Lipid Fraction of Nigella Sativa L. Seeds” (priority 2004, published 2008).

One experiment deals with Salmonella typhi murium. Kind of experiment: In vitro antimicrobial comparison, bore method (zone of inhibition). The conditions noted are these: Ampicillin 1: g/mg; mean ± S.E. of 4 observations. The class given is cell-based. As for the experimental part: (§1) The comparative antibacterial activity of ampicillin (1 microg/mg) and the Nigella sativa L. lipid fraction (1 mg/ml) against Staphylococcus pyogenes, Corynebacterium pyogenes and Salmonella typhi murium was performed in vitro using the bore method described by Cooper and Woodman (1964).

The next experiment concerns Corynebacterium pyogenes. The experiment is described as above. The settings on record: Ampicillin 1: g/mg; mean ± S.E. of 4 observations. The class given is cell-based. The method, then: as §1
The next experiment deals with Staphylococcus pyogenes. The description is as above. It counts as cell-based. The conditions noted are these: Ampicillin 1: g/mg; mean ± S.E. of 4 observations. As for the experimental part:
as §1

Experiment [1] has as its system sensitized guinea pigs exposed to ova albumin inhalation. Description: Tachypnea protective effect in ova albumin sensitized animals. It counts as in vivo. The conditions noted are these: ketotifen 50: g/kg, treated for 21 days. As for the experimental part:
This experiment was an in vivo study to evaluate the tachypnea (protective) effect of the Nigella sativa L. lipid fraction of the present invention. The second protocol involved sensitized animals. Animals were sensitized by injecting ova albumin in two doses 100 mg each (S.C. and I.P., simultaneously). Animals were resensitized 15 days later. Guinea pigs were divided into three groups with 8 animals per group. The first group received a saline injection to serve as negative control. The second group received ketotifen which is the standard treatment to serve as positive control. The third group received 200 mg/kg each of the Nigella sativa L. lipid fraction of the present invention. Animals in all groups were treated for 21 days following which they were exposed to ova albumin inhalation and time to onset of tachypnea was recorded as shown in the table below.

In experiment [2] the test system is guinea pigs exposed to histamine aerosol (0.25%). Description: Prophylactic anti-asthmatic effect, preconvulsive time on histamine aerosol. The class given is in vivo. The settings on record: ketotifen 50: g/kg, treated for 21 days; histamine (0.25%) aerosol. The method, then:
This example explains in vivo studies to evaluate the prophylactic (protective) anti-asthmatic effect of the Nigella sativa L. lipid fraction of the present invention. The prophylactic anti-asthmatic effect was evaluated in vivo by measurement of the preconvulsive time in guinea pigs exposed to histamine aerosol (0.25%).
Guinea pigs were divided into three groups with 8 animals per group. The first group received saline with injection to serve as negative control. The second group received ketotifen, which is the standard treatment to serve as positive control. The third group received 200 mg/kg each of the Nigella sativa L. lipid fraction of the present invention.
Animals in all groups were treated for 21 days following, after which they were exposed to histamine (0.25%) aerosol and the preconvulsive time was recorded.

For experiment [3] the following is noted: 16 published human studies, total of 590 subjects; cited from earlier work.

Take `CC1(C)S[C@@H]2[C@H](NC(=O)[C@H](N)c3ccccc3)C(=O)N2[C@H]1C(=O)O` [Ampicillin, ampicillin]: the “Diameter of Zone of inhibition” value is 13.1 ± 0.2 mm in the experiment with Salmonella typhi murium, 44.7 ± 0.8 mm with Corynebacterium pyogenes and 26.7 ± 0.3 mm with Staphylococcus pyogenes.

With `CN1CCC(=C2c3ccccc3CC(=O)c3sccc32)CC1` [ketotifen], in experiment [1], the “% of Prophylaxis” value is 44.4%. Further, the “% of Prophylaxis (Protection)” value in experiment [2] is given as 82.85%.

For phytosterol, in experiment [3], the “average reduction in total cholesterol” value is 10% and the “reduction in LDL cholesterol levels” value is on record as 13%.
